According to PubChem BioAssay (NCI):
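Cultured in 96-well plates, cells were exposed to test compound for 48 hours across five concentrations. GI50 = concentration required for 50% inhibition of growth. TGI: concentration producing complete growth inhibition.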

Assays:
Experiment in all cases: NCI tumour cell line growth inhibition, 48 h
786-0 renal = test system: 786-0 renal
EKVX NSCLC = test system: EKVX NSCLC
HCC-2998 colon = test system: HCC-2998 colon
NCI-H460 lung = test system: NCI-H460 lung
NCI-H522 lung = test system: NCI-H522 lung
NCI/ADR-RES ovarian = test system: NCI/ADR-RES ovarian
SF-295 CNS = test system: SF-295 CNS
SF-539 CNS = test system: SF-539 CNS
SR leukemia = test system: SR leukemia
SW-620 colon = test system: SW-620 colon

Compound	GI50 (786-0 renal) [µM]	TGI (786-0 renal) [µM]	GI50 (EKVX NSCLC) [µM]	TGI (EKVX NSCLC) [µM]	GI50 (HCC-2998 colon) [µM]	TGI (HCC-2998 colon) [µM]	GI50 (NCI-H460 lung) [µM]	TGI (NCI-H460 lung) [µM]	GI50 (NCI-H522 lung) [µM]	TGI (NCI-H522 lung) [µM]	GI50 (NCI/ADR-RES ovarian) [µM]	TGI (NCI/ADR-RES ovarian) [µM]	GI50 (SF-295 CNS) [µM]	TGI (SF-295 CNS) [µM]	GI50 (SF-539 CNS) [µM]	TGI (SF-539 CNS) [µM]	GI50 (SR leukemia) [µM]	TGI (SR leukemia) [µM]	GI50 (SW-620 colon) [µM]	TGI (SW-620 colon) [µM]
COc1cc(/C=C/C(=O)c2c(C)n([O-])c3ccccc3[n+]2=O)cc(OC)c1OC	6.94	20.1	2.43	6.86	8.77	22.3	3.63	13.1	8.73	24	4.02	20	4.34	14.8	11.5	23.7	2.75	14.9	4.99	17.1
CN1CCN(C2=C(Cl)C(=O)c3ccccc3C2=O)CC1	1.77	3.39	3.05	11	2.05	4.51	2.95	9.47	0.38	1.64	2.03	4.57	4.8	15.9	2.08	4.47	3.42	> 27.3	1.67	3.23
O=C(O)CCC(O)=C1S(=O)(=O)OCCOS1(=O)=O	–	> 100	–	> 100	–	> 100	–	> 100	–	> 100	–	> 100	–	> 100	–	> 100	–	> 100	–	> 100
N[C@H]1CCC[C@@H](O)C1O (some centres not stated)	–	> 100	–	> 100	–	> 100	–	> 100	–	> 100	–	> 100	–	> 100	–	> 100	–	> 100	–	> 100
COC(=O)CNC(=O)C(=O)c1c(O)c(O)c(C(C)C)c2cc(C)c(-c3c(C)cc4c(C(C)C)c(O)c(O)c(C(=O)C(=O)NCC(=O)OC)c4c3O)c(O)c12	2.35	8.77	1.2	4.99	1.92	7.1	1.52	4.57	1.32	3.43	1.93	9.28	1.46	6.89	1.77	7.84	1.32	7.76	1.96	6.94
Cc1cccc(CNc2c3ccccc3nc3ccccc23)c1	1.89	4.09	2.31	8.97	1.55	3.4	1.99	5.03	1.53	4.67	1.85	5.97	2.13	6.67	1.67	3.14	1.94	8.62	1.74	5.63
OCc1c(-c2cccs2)oc(-c2cccs2)c1CO	> 100	> 100	34.6	> 100	21.1	45.6	28.4	> 100	39.1	> 100	40.1	> 100	27.7	> 100	50.9	> 100	32.5	60.5	63.6	> 100
COC(=O)NC1(NC(=O)OC)NC(=O)c2ccccc2N1	–	> 100	–	> 100	–	> 100	–	> 100	–	> 100	–	> 100	–	> 100	–	> 100	–	> 100	–	> 100
CN(C)S(=O)(=O)c1cccc(C(=O)Nc2nc(-c3ccc(F)c(F)c3)cs2)c1	18.8	90.4	4	> 76.2	58.9	> 100	12.8	> 100	5.71	> 100	5.32	> 100	2.58	26.4	15.3	58	6.17	> 100	47.9	> 100
CN[C@@H](C)C(=O)N[C@H](C(=O)N1CCC[C@H]1c1nc(C(=O)c2ccc(F)cc2)cs1)C1CCCCC1	17.1	34	–	–	16	31.2	27.8	> 72.8	3.45	16.5	21.2	> 66	19.4	46.1	0.838	17.6	11.5	38	27.4	> 77.6
CCN(Cc1cc(Cl)cc(C)c1O)Cc1c(O)ccc2ccccc12	–	34	–	32.8	–	32.7	–	36	–	31.8	–	32	–	31.3	–	30	–	52.5	–	69.7
Nc1c(C(=O)c2cccc(-c3cccnc3)c2)cnn1-c1ccc(F)cc1	> 25	> 25	–	–	> 25	> 25	> 25	> 25	6.12	24.7	> 20.5	> 25	> 25	> 25	> 25	> 25	> 25	> 25	> 25	> 25
Cc1cc(NC(=O)NCCOc2ccc(N3C(N)=NC(N)=NC3(C)C)cc2Cl)ccc1S(=O)(=O)F	5.02	> 100	–	–	2.96	> 100	0.391	17.6	2.54	17.7	> 100	> 100	5.16	> 85.1	2.93	18.1	0.493	40	0.661	> 100
CC(C)(C)OC(=O)N(CCCCN(CCCn1c2c(c3ccccc3c1=O)C(=O)c1ccccc1-2)C(=O)OC(C)(C)C)CCCn1c2c(c3ccccc3c1=O)C(=O)c1ccccc1-2	26.8	> 100	–	–	10.9	41	6.32	19.3	26.2	> 100	30.1	> 100	14	> 100	8.79	33.1	0.304	> 100	32.3	> 100
